According to PubChem BioAssay AID1626 (SRMLSC, 2009):

System: M. tuberculosis H37Rv growth inhibition
Test: M. tuberculosis H37Rv growth inhibitors, H37Rv strain (AID 1626)
Conditions: for IC90: measured here: IC90 against H37Rv; for CC50: measured here: Vero cell cytotoxicity

SMILES	IC50 [µM]	IC90 [µM]	CC50 [µM]
Cc1nc2ccccc2n1/N=C/c1ccc([N+](=O)[O-])s1	< 0.195	< 0.195	5.49
CCOCCOC(=O)COc1ccc2c(-c3ccccc3)cc(=O)oc2c1	1.28	4.32	
O=C(c1c[nH]c(C(=O)N2CCN(c3ccccc3F)CC2)c1)c1cccc(Cl)c1Cl			16.9
Cc1ccc2nc(/C(C#N)=C\c3ccc([N+](=O)[O-])o3)[nH]c2c1	< 0.195	< 0.195	3.11
CCOC(=O)c1ccc(N/C=C2/CCCC(C)C2=O)cc1 (centres undefined)	10.9	> 100	
c1ccc(-c2ccc3c(c2)c2c4n3CCN=C4CCC2)cc1	10.7	14.9	24.7
O=C(NCc1ccc(F)cc1)C(=O)Nc1nc(C23CC4CC(CC(C4)C2)C3)cs1			21.4
Cc1sc2nc(CN(C(=O)NC3CCCCC3)C3CCCC3)[nH]c(=O)c2c1C	6.11	26.3	> 40
COc1ccc(-c2oc3ccc(N4CCOCC4)cc3c2C#CC2(O)CCCCC2)cc1			> 40
Clc1ccc(SCc2cc(N3CCOCC3)nc(-c3ccccn3)n2)cc1	8.83	41.6	12.2
COc1ccc(CNCc2cn(-c3cccc(F)c3)nc2-c2ccc(C)o2)cc1	6.12	10.5	> 40
Cc1nc(N2CCN(c3ccccn3)CC2)c2c(C)c(C(=O)Nc3ccccc3F)sc2n1	8.96	> 100	> 40
O=C1/C(=C/c2ccccc2[N+](=O)[O-])COc2ccccc21	2.9	3.25	5.95
CC(C)Nc1cc(C(F)(F)F)nc(-c2ccccn2)n1	5.17	> 100	
CC(C)c1ccc(NC(=O)COc2ccc(C3SCCS3)cc2)cc1		> 100	
COC(=O)CSc1nnc(-c2ccc(OC)c(OC)c2)o1	1.43	5.53	
Cc1cc(N)c2cc(NC(=O)/C=C/c3ccccc3Cl)ccc2n1	1.68	2.84	1.76
CCOc1ccc(NC(C(=O)Nc2cccc(C(C)=O)c2)c2ccccc2)cc1 (centres undefined)		> 100	
c1ccc(-c2nc(NCc3ccco3)c3ccccc3n2)nc1	1.92	3	9.33
O=c1oc2ccc(Br)cc2cc1-c1nc2ccccc2o1	2	3.83	
c1ccc(CN2CCN(c3nc(-c4ccccc4)nc(-n4ccnc4)n3)CC2)cc1	1.5	2.2	> 40

SMILES	IC50 [µM]	IC90 [µM]	CC50 [µM]
Cc1ccc(-c2csc3ncnc(Oc4ccc5c(C)cc(=O)oc5c4)c23)cc1	< 0.195	> 100	> 40
N#CC(c1ccc(Cl)cc1)c1ccc2c(C(F)(F)F)cc(C(F)(F)F)nc2n1 (centres undefined)	0.571	0.691	0.904
CCOC(=O)c1ccc(NC(=O)Oc2cc(C)c(Cl)cc2C(C)C)cc1	11.4	> 100	
CCOC(=O)c1ccc(N=CC2=C(O)CC(C)(C)CC2=O)cc1	1.35	> 100	
Nc1nc2ccccc2n1C(=O)c1ccc(F)cc1	1.93	4.15	> 40
CCOC(=O)c1sc2nc(CSc3ccccc3)nc(N3CCCN(C)CC3)c2c1C	5.79	6.53	24.8
Cn1cnnc1SCc1ccc(-c2ccc(Br)cc2)o1		> 100	> 40
Fc1ccc(Oc2nc(-c3ccccn3)nc3ccccc23)cc1	1.96	11.2	> 40
CCOC(=O)c1ccc(NC(=O)CCOc2ccc(OC)cc2)cc1	9.49	> 100	
COc1ccc(C2CC(=O)C3=C(C2)NC(C)=C(C#N)C3c2ccc(N(C)C)cc2)cc1 (centres undefined)	12.5	21.9	
Cn1c(-c2c(N)n(-c3ccccc3)c3nc4ccccc4nc23)nc2ccccc21	0.331	> 100	> 40
O=C(CCl)N(c1ccccc1)c1ccccc1	5.73	17.6	1.69
CCOC(=O)c1cc(C)nc(Sc2ccc(C)cc2)c1C#N	12.7	> 100	> 40
CCCOc1ccc(NCC(=O)Nc2ccc(C)cc2C)cc1	< 0.391	> 100	
Cc1cc(NC(=O)c2c(F)cccc2Cl)n(-c2nc3ccccc3[nH]2)n1	16.5	25.9	> 40
CCOC(=O)CSc1nnc(-c2cc(OC)c(OC)c(OC)c2)o1	1.62	4.38	
Nc1ncnc2c1ccn2[C@@H]1O[C@H](CO)[C@@H](O)[C@H]1O	2.44	3.87	0.131
CCCCOC(=O)c1ccc(NC(=O)C(=O)NCc2cccnc2)cc1	22.1	> 100	
O=C1Nc2ccccc2C1=Nc1ccc(S(=O)(=O)Nc2nccs2)cc1	4.54	11.3	
O=C1c2ccccc2C(Nc2ccc(-c3nc4ccccc4[nH]3)cc2)N1Cc1ccco1 (centres undefined)	9.03	20.8	> 40
CCn1c(NC(=O)C2CCCCC2)nc2ccccc21	1.86	> 100	> 40

SMILES	IC50 [µM]	IC90 [µM]	CC50 [µM]
O=C(/C=C/c1cccc(Cl)c1)c1nc2ccccc2[nH]1	2.94	3.34	15.3
c1ccc(OCCOCCN2CCN(C(c3ccccc3)c3ccccc3)CC2)cc1	11.7	13.5	> 40
O=[N+]([O-])c1ccc(-c2nc(C(Cl)Cl)c3ccccc3n2)cc1	< 0.195	< 0.195	< 0.078
Cn1ncc2c(Nc3cccc(Cl)c3)nc(Nc3cccc(Cl)c3)nc21	11.7	23.6	26.9
O=c1nc2c(O)cccn2c2c1c(=O)[nH]c1ccccc12	6.69	12.4	
O=c1cc(-c2ccccc2)nc(N2CCN(Cc3ccc4c(c3)OCO4)CC2)[nH]1	89	> 100	
CCOc1ccc(NC2=C(OC)C(=O)c3ccccc3C2=O)cc1	28.3	44.1	> 40
CCOC(=O)CSc1nnc(-c2ccc(NS(=O)(=O)c3ccc(C)cc3)cc2)o1	2.27	5.26	
Cc1ccc(NC(=O)NC2CCCCC2)cc1Cl	6.04	> 100	> 40
CCCCOC(=O)c1ccc(NC(=O)C(=O)NCCN(C)C)cc1	14.9	> 100	
Cc1nc(N)nc(N)c1/C=C/C(C)(C)c1ccc(Cl)cc1	0.562	1.29	< 0.078
O=C(Nc1nc(-c2ccc(F)cc2)cs1)c1cnccn1		> 100	> 40
O=C(C[n+]1cc(-c2ccc(F)cc2)n2c1CCC2)Nc1nc(-c2ccc(F)cc2)cs1	10.5	41.1	
CCCCc1ccc(NC(=O)C(C)CC)cc1 (centres undefined)	6.21	> 100	
COc1ccccc1NC(CC(=O)c1ccccc1)C(=O)OCC(=O)c1ccc(Br)cc1 (centres undefined)	13.8	21.1	
COc1ccc(/C=c2\s/c(=C/C(=O)c3ccc(C)cc3)[nH]c2=O)cc1OC	32.6	> 100	
CCC(CC)c1nnc(NC(=O)c2ccc3ccccc3n2)s1	0.814	1.48	35.7
O=C(c1ccccc1)C1CN(Cc2ccccc2)CCC1(O)c1ccccc1 (centres undefined)	24.8	28.2	
CCOC(=O)CC(=O)Nc1ccc(C(=O)OCC)cc1	10	> 100	
CCC(=O)Nc1ccc2ccccc2c1	46.5	> 100	
CCCNC(=O)CSc1nnc(-c2ccc(F)cc2)o1	5.88	> 100	

SMILES	IC50 [µM]	IC90 [µM]	CC50 [µM]
COc1ccc(N=C2C(=O)Nc3c(C)cccc32)cc1		> 100	
COc1ccccc1-c1nnc(SCC(=O)Nc2cc(C)on2)o1	10.4	16.5	
Cc1ccc(Sc2ccc(C=C3C(=O)N(C)C(=O)N(C)C3=O)o2)cc1	7.56	20.8	
COc1ccc(C(=O)Nc2cc(OC)c(NC(=O)c3ccco3)cc2OC)cc1	2.85	9.59	
Cc1nc(SCC(=O)Nc2cc(C)on2)c2c3c(sc2n1)CCCC3	< 0.195	13.8	21
CC(=O)Nc1nc2ccccc2n1Cc1ccccc1	2.74	3.59	> 40
Cc1cnc(NC(=O)c2cc3c(C)nn(-c4ccccc4)c3s2)s1	61	> 100	> 40
CSc1nc2nc(C)c(C/C=C/c3ccccc3)c(=O)n2[nH]1	11.4	> 100	
O=C(c1ccc(Cl)cc1)C1CCCN(Cc2cnn(-c3ccccc3)c2)C1 (centres undefined)	8.69	11.5	
CCOc1ccc(Nc2nc(N)nc(CN3CCN(c4ccccc4F)CC3)n2)cc1	7.83	16.8	
Cc1cccc(NC(=O)c2nc[nH]c2C(=O)N[C@@H](C)C(=O)OCc2ccccc2)c1	59.9	> 100	
O=C(OCC#CCSc1nnc(-c2ccc([N+](=O)[O-])cc2)o1)c1cccs1	< 0.195	1.3	
COC(=O)CSc1ncnc2c1sc1nc3c(cc12)COC(C)(C)C3	3.1	10	
CCOc1ccc2c3c(c(=O)oc2c1OCC)CCCC3	7.11	12.8	
O=C(Nc1ccc(N2CCCCC2)c(Cl)c1)c1ccc(N2CCOCC2)c([N+](=O)[O-])c1	40.2	> 100	30
O=C(Nc1nc(-c2ccncc2)cs1)C1c2ccccc2Oc2ccccc21			> 40
Cc1nc(NC(=O)c2ccccc2)sc1Cc1ccc2c(c1)OCO2	60.5	> 100	> 40
O=C(c1cc2c(F)cccc2s1)N1CCCC1	7.87	> 100	
O=C(/C=C/c1cccc([N+](=O)[O-])c1)c1cccs1	11.1	12.8	
O=C(Cc1ccc([N+](=O)[O-])cc1)Nc1cc(C(F)(F)F)cc(C(F)(F)F)c1	0.369	> 100	20.8
CC1CC(C)(C)Nc2ccc(OC(=O)c3ccco3)cc21 (centres undefined)	15.9	22.2	> 40
